Earlier results on two molecules are cited in patent US6676963B1, “Ligand-targeted emulsions carrying bioactive agents” (Barnes-Jewish Hospital, priority 2000, dated 2004).

SMILES strings stand for the structures. Where two headings read alike, the source gives them in different places.

For the series the following is noted: for solubility in water / buffer (in words): water or aqueous buffer.

For `COc1cccc2c1C(=O)c1c(O)c3c(c(O)c1C2=O)C[C@@](O)(C(=O)CO)C[C@@H]3O[C@H]1C[C@H](N)[C@H](O)[C@H](C)O1` [Doxorubicin, doxorubicin], the “solubility in water / buffer (in words)” value is recorded as “highly water soluble”.

Consider `CC(=O)O[C@H]1C(=O)[C@@]2(C)[C@H]([C@H](OC(=O)c3ccccc3)[C@]3(O)C[C@H](OC(=O)[C@H](O)[C@@H](NC(=O)c4ccccc4)c4ccccc4)C(C)=C1C3(C)C)[C@]1(OC(C)=O)CO[C@@H]1C[C@@H]2O` [taxol, paclitaxel], for which the “solubility in water / buffer (in words)” value was “insoluble in water”. Under “lipid emulsions such as Intralipid or Liposyn”, the “solubility in lipid emulsions (in words)” value is reported as “insoluble in lipid emulsions”. Where the note is “listed as paclitaxel”, the “solubility in water / buffer (in words)” value was “highly insoluble in buffer”.
